Assay type in all cases: binding
The subject of experiment [1] is antisense TERRA. Nature of the experiment: FP assay, full-length TRF2 protein with FAM labeled antisense TERRA. The note with it: FAM labeled oligo.
The test system of experiment [2] is antisense TeloDNA. Nature of the experiment: FP assay, full-length TRF2 protein with FAM labeled antisense TeloDNA. The note with it: FAM labeled oligo.
Experiment [3] has as its system antisense TERRA. In words: FP assay, FITC labeled TRF2 peptide with antisense TERRA. Conditions: 10 nM FITC peptide. Here is the method: (§1) All the nucleic acids, peptides and chemicals were dissolved in buffer containing 20 mM HEPES pH7.5, 150 mM salt (KCl, NaCl, LiCl) at the stock concentration of 1 mM. For peptide and nucleic acid interactions, 25μL of each nucleic acids with a sequential twofold dilutions starting from 50 μM was added into each well of 96-well plate followed by adding 25μL of 10 nM FITC labeled TRF2 peptide. For compounds and nucleic acid interactions, 20μL of each compounds with a sequential twofold dilutions starting from 50 μM were added into each well of 96-well plate followed by adding 5μL of 20 ng/mL tRNA and 25μL of 10 nM FAM labeled nucleic acids. For inhibition assay, 5μL FITC labeled TRF2 GAR peptide (10 nM final concentration) and 10 μL oligos (5 μM final concentration) were mixed, followed by adding 5μL of each compound with a sequential twofold dilutions starting from 50 μM into each well of 384-well plate. All components were mixed thoroughly, and the plate was incubated at room temperature for 1 h before placing in an Envision Plate Reader for reading at 495/520 nm. All data curves were fitted using Prism 8.0.

For experiment [4], the system named is antisense TeloDNA. In words: FP assay, FITC labeled TRF2 peptide with antisense TeloDNA. The note with it: 10 nM FITC peptide. Here is the method:
as §1

The subject of experiment [5] is TeloDNA. In words: FP assay, FITC labeled TRF2 peptide with TeloDNA. The note with it: 10 nM FITC peptide. Here is the method: as §1
For experiment [6], the system named is TERRA. Nature of the experiment: FP assay, FITC labeled TRF2 peptide with TERRA. Conditions: 10 nM FITC peptide. As for the experimental part: as §1

For orientation: EC50 means the concentration needed to bring the measured effect to its halfway point.

Consider “full-length TRF2 protein: purified recombinant full-length TRF2 protein”, for which the “full-length TRF2 affinity for antisense TERRA” value in experiment [1] is reported as “lacks measurable affinity”. In addition, the “full-length TRF2 affinity for antisense TeloDNA” value in experiment [2] was “lacks measurable affinity”.

For “AAAGAAASASSGAAAAGAHEPGLGGPAEAGAGEAA [Ala mutant, control peptide with each of the 10 arginine residues mutated to alanine]”, the “peptide binding to antisense TERRA” value in experiment [3] is “Neither TRF2 GAR nor the Ala mutant showed any detectable binding”. Also, in experiment [4], the “peptide binding to antisense TeloDNA” value is listed as “Neither TRF2 GAR nor the Ala mutant showed any detectable binding”. Besides, in experiment [5], the “peptide binding to TeloDNA” value was “no detectable binding”. Further, the “peptide binding to TERRA” value in experiment [6] is “no detectable binding”.

For “RAAGRRASRSSGRARRGRHEPGLGGPAERGAGEAR [TRF2 GAR, 35-residue peptide containing the GAR domain of TRF2]”, in experiment [3], the “peptide binding to antisense TERRA” value is “Neither TRF2 GAR nor the Ala mutant showed any detectable binding”. Also, the “peptide binding to antisense TeloDNA” value in experiment [4] is recorded as “Neither TRF2 GAR nor the Ala mutant showed any detectable binding”. The EC50 in experiment [5] (read-out: EC50 (affinity), peptide binding to TeloDNA) turned out to be 8.9 µM; in experiment [6] (read-out: EC50 (affinity), peptide binding to TERRA), 2.7 µM.

Source of the values: paper PMC7876106 (Scientific Reports, 2021).
